Results published in ChEMBL document CHEMBL5143665, “Discovery and preclinical evaluations of WX-0593, a novel ALK inhibitor targeting crizotinib-resistant mutations” (Bioorg Med Chem Lett, 2022).

What was measured:
Assay in all cases: cells
KARPAS-299 = details: Homo sapiens
Description: Antiproliferative activity against human KARPAS-299 cells harbouring wild type ALK assessed as reduction in cell viability by Celltitre-Glo luminescent assay

BaF3 [1] = details: Mus musculus
Description: Antiproliferative activity against mouse BaF3 cells harbouring ALK wild type assessed as reduction in cell viability by Celltitre-Glo luminescent assay

BaF3 [2] = details: Mus musculus; remark: listed apart in the source
Description: Antiproliferative activity against mouse BaF3 cells harbouring ALK L1196M mutant assessed as reduction in cell viability by Celltitre-Glo luminescent assay

BaF3 [3] = details: Mus musculus; remark: listed apart in the source
Description: Antiproliferative activity against mouse BaF3 cells harbouring ALK C1156Y mutant assessed as reduction in cell viability by Celltitre-Glo luminescent assay

| SMILES | IC50 (KARPAS-299) | IC50 (BaF3 [1]) | IC50 (BaF3 [2]) | IC50 (BaF3 [3]) |
| --- | --- | --- | --- | --- |
| COc1cc(C2CCC3(CC2)CCN(C)CC3)ccc1Nc1ncc(Cl)c(Nc2ccccc2P(C)(C)=O)n1 | 36 nM | 11 nM | 27 nM | 30 nM |
| COc1cc(N2CCC3(CCNC3)CC2)ccc1Nc1ncc(Cl)c(Nc2ccccc2P(C)(C)=O)n1 | 78 nM |  |  |  |
| COc1cc(N2CCC3(CCN(C)CC3)CC2)c(F)cc1Nc1ncc(Cl)c(Nc2ccccc2P(C)(C)=O)n1 | 15 nM |  |  |  |
